How the values were obtained:
[1] = test system: Glucagon-like peptide-1 (GLP-1); experiment: Total GLP-1 secretion at end of oral glucose tolerance test; format: in vivo; conditions: C57/6N mice, 100 mg/kg oral; total GLP-1 at end of OGTT vs. control animals
Description: The effect of test compounds on the secretion of Glucagon-like peptide-1 (GLP-1) in C57/6N mice was determined at the end of the oral glucose tolerance test. Animals were anesthetized with pentobarbital and blood collected by heart puncture in potassium EDTA-coated microtainer tubes containing 10 μl/ml DPP-IV inhibitor and 500 KIU/ml Aprotinin. Total GLP-1 was measured using Mouse/Rat Total Glucagon-like peptide-1 assay kit (Meso Scale Discovery) and MSD SECTOR2400 Imager according to the manufacturer's instructions.
(§1) Oral glucose tolerance is expressed as a percent reduction in glucose excursion of animals receiving test compound vs. control animals. Incretin activity (i.e. incretin secretion) is expressed as an x-fold increase in GLP-1 production in animals receiving test compound vs. control animals.

[2] = target: T1, human GPR131 (Homo sapiens, UniProt Q8TDU6); experiment: Stimulation of cAMP in stable cell line expressing human GPR131 (FRET cAMP kit); format: cell-based; conditions: 0.5 h; 1.1 μM compound, relative to maximal stimulatory activity of lithocholic acid at 3.3 μM; 30 minutes at 37° C.; read-out: Percent Activity @ 1.1 μM (of 3.3 uM LCA) (%)
T1 construct: expressed in transfected cells
T1 sequence (Q8TDU6 1-330): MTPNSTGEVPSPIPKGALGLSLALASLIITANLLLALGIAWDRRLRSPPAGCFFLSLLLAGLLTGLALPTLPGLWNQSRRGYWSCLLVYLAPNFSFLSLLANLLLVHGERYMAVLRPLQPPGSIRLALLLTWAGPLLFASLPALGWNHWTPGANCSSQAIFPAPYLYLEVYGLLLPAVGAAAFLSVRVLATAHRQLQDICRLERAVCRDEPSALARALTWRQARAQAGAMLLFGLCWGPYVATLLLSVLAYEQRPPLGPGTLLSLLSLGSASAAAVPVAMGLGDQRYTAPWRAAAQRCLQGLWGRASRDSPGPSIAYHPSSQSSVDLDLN
Method in brief: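 Stable human GPR131 cells in DMEM/F12 with 1 mM IBMX treated with compound for 30 min at 37° C. Intracellular cAMP measured by competitive FRET immunoassay (665/620 nm ratio). Values given as % activity at 1.1 μM compound relative to maximal lithocholic acid stimulation at 3.3 μM.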

[3] = Oral glucose tolerance test in C57BL/6N mice; format: in vivo; conditions: 100 mg/kg oral, 3 g/kg glucose, percent reduction in glucose excursion (AUC 0-120 min) vs. control animals
Description: Male mice (8-10 week old C57BL/6N, Harlan Laboratories, Inc.) were maintained on 18% Protein Rodent diet (Teklad Global Diets, Harlan Laboratories, Inc). Overnight fasted mice were randomized into groups (n=8-10) to receive the test compounds at a dose of 100 mg/kg or the vehicle (1% CMC, 2% TWEEN 80). Compounds were delivered orally via gavage. Blood glucose levels were measured by glucometer before administration of compounds and at 30 minutes post compound. The mice were then dosed orally with 3 g/kg glucose. Blood glucose measurements were taken 20, 40, 60, 90 and 120 minutes after glucose administration. Glucose levels were plotted against time and the incremental area under the curve (AUC) of the glucose excursion was determined from T=0 to T=120 min.
as §1

[4] = test system: Glucagon-like peptide-2 (GLP-2); experiment: Total GLP-2 secretion at end of OGTT in DIO mice; format: in vivo; conditions: C57BL/6J DIO mice, 100 mg/kg oral; total GLP-2, 2 hours post glucose dosing
Description: (§2) 18 week old C57BL/6J diet induced obese (DIO) male mice were maintained on a 60 kcal % fat diet. Mice fasted for 9 hours were randomized into groups (n=9-10) to receive vehicle (1% CMC, 2% TWEEN 80) or test compound at a dose of 100 mg/kg. Compounds were delivered orally via gavage, and 30 minutes later mice were dosed orally with 2 g/kg glucose.
(§3) The effect of GPR131 agonists on the secretion of total Glucagon-like peptide-2 (GLP-2) and total Peptide YY (PYY) was determined at the end of the oral glucose tolerance test (2 hours post glucose dosing). Animals were anesthetized with pentobarbital and blood collected by heart puncture in potassium EDTA-coated microtainer tubes containing 10 μl/ml DPP-IV inhibitor and 500 KIU/ml Aprotinin. Total GLP-2 was measured using Total Glucagon-like peptide-2 assay kit and Total PYY was measured using Total Peptide YY assay kit.

[5] = test system: Peptide YY (PYY); experiment: Total PYY secretion at end of OGTT in DIO mice; format: in vivo; conditions: C57BL/6J DIO mice, 100 mg/kg oral, 2 hours post glucose dosing
Description: as §2, §3

Row | activation at 1.1 µM [2] | SMILES | Increase in GLP-1 (Fold) [1] | Glucose Reduction (%) [3] | Increase in GLP-2 (Fold) [4] | Increase in PYY (Fold) [5]
1 | 100% | Cc1cc(CN(C)C(=O)c2cnc(SCc3c(F)ccc(F)c3F)n2-c2ccc(F)cc2)ccn1 [Compound 577, 1-(4-Fluorophenyl)-N-methyl-N-((2-methylpyridin-4-yl)methyl)-2-((2,3,6-trifluorobenzyl)thio)-1H-imidazole-5-carboxamide] | 4.1 Fold | 24.4% | 2.5 Fold | 2.2 Fold
2 | 97% | Cc1nn(C)cc1CN(C)C(=O)c1cnc(SCc2cc(C(C)C)no2)n1-c1ccc(F)cc1 [Compound 631, N-((1,3-Dimethyl-1H-pyrazol-4-yl)methyl)-1-(4-fluorophenyl)-2-(((3-isopropylisoxazol-5-yl)methyl)thio)-N-methyl-1H-imidazole-5-carboxamide] | – | – | – | –
3 | 100% | CCN(Cc1ccncc1)C(=O)c1cnc(SCc2c(Cl)ccc(OC)c2F)n1-c1ccc(F)cc1 [Compound 626, 2-((6-Chloro-2-fluoro-3-methoxybenzyl)thio)-N-ethyl-1-(4-fluorophenyl)-N-(pyridin-4-ylmethyl)-1H-imidazole-5-carboxamide] | – | – | – | –
4 | 98% | CN(Cc1ccncc1)C(=O)c1cnc(SCc2cc(F)ccc2Cl)n1-c1ccc(F)cc1 [Compound 615, 2-((2-Chloro-5-fluorobenzyl)thio)-1-(4-fluorophenyl)-N-methyl-N-(pyridin-4-ylmethyl)-1H-imidazole-5-carboxamide] | – | – | – | –

Further lines, the compound ahead of its results:

Row | SMILES | activation at 1.1 µM [2] | Increase in GLP-1 (Fold) [1] | Glucose Reduction (%) [3] | Increase in GLP-2 (Fold) [4] | Increase in PYY (Fold) [5]
5 | Cc1nn(C)cc1CN(C)C(=O)c1cnc(SCc2c(F)ccc(F)c2F)n1-c1ccc(F)cc1 [Compound 505, N-((1,3-Dimethyl-1H-pyrazol-4-yl)methyl)-1-(4-fluorophenyl)-N-methyl-2-((2,3,6-trifluorobenzyl)thio)-1H-imidazole-5-carboxamide] | 99% | 1.9 Fold | 27.4% | – | –
6 | Cc1cnccc1CN(C)C(=O)c1cnc(SCc2c(F)ccc(F)c2F)n1-c1ccc(F)cc1 [Compound 502, 1-(4-Fluorophenyl)-N-methyl-N-((3-methylpyridin-4-yl)methyl)-2-((2,3,6-trifluorobenzyl)thio)-1H-imidazole-5-carboxamide] | 100% | 2.2 Fold | 27.7% | – | –
7 | Cc1nc(CSc2ncc(C(=O)N(C)Cc3cn(C)nc3C)n2-c2ccc(F)cc2)no1 [Compound 552, N-((1,3-Dimethyl-1H-pyrazol-4-yl)methyl)-1-(4-fluorophenyl)-N-methyl-2-(((5-methyl-1,2,4-oxadiazol-3-yl)methyl)thio)-1H-imidazole-5-carboxamide] | 99% | – | – | – | –
8 | Cc1nn(C)cc1CNCc1cnc(SCc2c(F)ccc(F)c2F)n1-c1ccc(F)cc1 [Compound 531, 1-(1,3-Dimethyl-1H-pyrazol-4-yl)-N-((1-(4-fluorophenyl)-2-((2,3,6-trifluorobenzyl)thio)-1H-imidazol-5-yl)methyl)methanamine] | 84% | – | – | – | –
9 | Cc1nn(C)cc1CN(C)C(=O)c1cnc(COc2c(F)ccc(F)c2F)n1-c1ccc(F)cc1 [Compound 568, N-((1,3-Dimethyl-1H-pyrazol-4-yl)methyl)-1-(4-fluorophenyl)-N-methyl-2-((2,3,6-trifluorophenoxy)methyl)-1H-imidazole-5-carboxamide] | 83% | – | – | – | –
